Measurements from ChEMBL document CHEMBL3885861, “Open TG-GATES”.

Species on record: Rattus norvegicus
Assay: Open TG-GATES - Regimen: Single
Assay type: toxicity, organism-based, Sprague-Dawley
Parameters: regimen Single, gender Male, age 6 weeks
Conditions: in vivo, po, 30 mg/kg, route gavage, dose level Middle; for Bas / Eos / Hb / Ht / Lym / MCH / MCHC / MCV / Mono / Neu / Plat / RBC / Ret / WBC: tissue Blood; for KIDNEY_L / KIDNEY_R / KIDNEY_TOTAL: tissue Kidney; for LIVER: tissue Liver; for A/G / ALP / ALT / AST / BUN / CRE / Ca / Cl / DBIL / GLC / IP / K / LDH / Na / PL / RALB / TBIL / TC / TG / TP / gamma-GTP: tissue Plasma

`Cc1ccc2cc3c(ccc4ccccc43)c3c2c1CC3` [3-METHYLCHOLANTHRENE] showed a TERMINAL_BW (9 h) of 206.5 g, a Bas (9 h) of 0% and an Eos (9 h) of 0.6%. The Hb (9 h) was 12.7 g/dL, the Ht (9 h) was 39.4% and the Lym (9 h) was 73.2%. The MCH (9 h) was 20.7 pg, the MCHC (9 h) was 32.2% and the MCV (9 h) was 64.3 fL. The Mono (9 h) was 3.6%, the Neu (9 h) was 21.6% and the Plat (9 h) was 127.5 x10_4/uL. The RBC (9 h) was 612.8 x10_4/ul, the Ret (9 h) was 9.1% and the WBC (9 h) was 119.4 x10_2/uL. The KIDNEY_L (9 h) was 0.9 g, the KIDNEY_R (9 h) was 0.9 g and the KIDNEY_TOTAL (9 h) was 1.8 g. The LIVER (9 h) was 8.6 g, the A/G (9 h) was 1 and the ALP (9 h) was 1625.8 IU/L. The ALT (9 h) was 34.6 IU/L, the AST (9 h) was 64.2 IU/L and the BUN (9 h) was 10.4 mg/dL. For the same compound, the CRE (9 h) was 0.1 mg/dL, the Ca (9 h) was 10.5 mg/dL and the Cl (9 h) was 103.9 meq/L. For the same compound, the DBIL (9 h) was 0.002 mg/dL, the GLC (9 h) was 178.4 mg/dL and the IP (9 h) was 10.2 mg/dL. The K (9 h) was 4.5 meq/L, the LDH (9 h) was 153.6 IU/L and the Na (9 h) was 141.7 meq/L. For the same compound, the PL (9 h) was 160 mg/dL, the RALB (9 h) was 2.8 g/dL and the TBIL (9 h) was 0.004 mg/dL. For the same compound, the TC (9 h) was 84 mg/dL, the TG (9 h) was 109.2 mg/dL and the TP (9 h) was 5.6 g/dL. For the same compound, the gamma-GTP (9 h) was 0.8 IU/L, the TERMINAL_BW (24 h) was 216.2 g and the Bas (24 h) was 0%. For the same compound, the Eos (24 h) was 0.2%, the Hb (24 h) was 12.6 g/dL and the Ht (24 h) was 38.1%. The Lym (24 h) was 80.6%, the MCH (24 h) was 20.6 pg and the MCHC (24 h) was 32.9%. The MCV (24 h) was 62.6 fL, the Mono (24 h) was 3.8% and the Neu (24 h) was 14.2%. It also gave a Plat (24 h) of 127.8 x10_4/uL, an RBC (24 h) of 608 x10_4/ul and a Ret (24 h) of 8%. The WBC (24 h) was 107.4 x10_2/uL, the KIDNEY_L (24 h) was 0.9 g and the KIDNEY_R (24 h) was 0.9 g. For the same compound, the KIDNEY_TOTAL (24 h) was 1.9 g, the LIVER (24 h) was 11 g and the A/G (24 h) was 1. The ALP (24 h) was 2072.4 IU/L, the ALT (24 h) was 41.2 IU/L and the AST (24 h) was 77.2 IU/L. It also gave a BUN (24 h) of 13.7 mg/dL, a CRE (24 h) of 0.1 mg/dL and a Ca (24 h) of 10.9 mg/dL. It also gave a Cl (24 h) of 103.4 meq/L, a DBIL (24 h) of 0 mg/dL and a GLC (24 h) of 173.8 mg/dL. The IP (24 h) was 7.1 mg/dL, the K (24 h) was 4.7 meq/L and the LDH (24 h) was 281.4 IU/L. The Na (24 h) was 141.5 meq/L, the PL (24 h) was 165.2 mg/dL and the RALB (24 h) was 2.8 g/dL. It also gave a TBIL (24 h) of 0.004 mg/dL, a TC (24 h) of 82.6 mg/dL and a TG (24 h) of 152.7 mg/dL. The TP (24 h) was 5.5 g/dL and the gamma-GTP (24 h) was 0.9 IU/L.
